What was measured:
Aspergillus spp. = test: MEC and MIC values versus Aspergillus spp.; assay type: cell-based; settings: 48 h; presence and absence of 50% human serum
Experimental: MEC and MIC values (μg/mL) of anidulafungin, caspofungin, amphotericin B, compound 1, and compound 16 against various Aspergillus species in the presence and absence of 50% human serum were obtained as follows.
Test organisms were obtained from the American Type Culture Collection (Manassas, Va.). The isolates were maintained at −80° C., then thawed and sub-cultured prior to testing. […]
Standardized inoculum of Aspergillus was prepared per CLSI methods. […] After a short time to allow the heavy particles to settle out, a small quantity of the supernatant was dispensed into RPMI and the suspension adjusted to equal 0.5 McFarland turbidity. […]
Plates were covered with a lid, placed in plastic bags, and incubated at 35° C. The Aspergillus plates were incubated for 48 h before reading. […]
Both an MIC and Minimal Effective Concentration (MEC) value was recorded. […]

[1] = Solubility in non-aqueous solvents; assay type: physicochemical; settings: organic solvent or mixture, compound 1 as acetate salt
Experimental: The solubility of compound 1 (acetate salt) was also measured in non-aqueous solvents to assess this compound's suitability for formulation in non-aqueous carriers.

[2] = Solubility in aqueous buffers of varying pH; assay type: physicochemical; settings: for solubility: ambient temperature, compound 1 as acetate salt
Experimental: The solubility of compound 1 (acetate salt) was measured in aqueous buffers of varying pH to assess this compound's suitability for formulation in an aqueous carrier for administration by injection (e.g., intravenous or intramuscular injection).

Row | SMILES | activity against Aspergillus strains relative to anidulafungin (MEC and MIC) (Aspergillus spp.) | solubility ([1]; Ethanol (EtOH)) | solubility ([1]; Glycerol) | solubility ([1]; PEG400) | solubility ([1]; Propylene glycol(PG)) | solubility ([2]; aqueous buffer, pH 3 (0.01M formate buffer)) | solubility ([2]; aqueous buffer, pH 4.6 (0.1M acetate buffer)) | solubility ([2]; aqueous buffer, pH 5.6 (0.1M acetate buffer)) | solubility ([2]; aqueous buffer, pH 7.4 (0.1M phosphate buffer)) | solubility ([2]; aqueous buffer, pH 8.5 (0.01M TRIS buffer)) | aqueous solubility compared with anidulafungin (in words) ([2]; over a broad pH range) | solubility ([2]; saline or isotonic, 0.9% saline) | solubility ([2]; simulated gastric fluid, pH 1 (0.1M HCl))
1 | CCCCCOc1ccc(-c2ccc(-c3ccc(C(=O)N[C@H]4C[C@@H](O)C(NCC[N+](C)(C)C)NC(=O)C5[C@@H](O)[C@@H](C)CN5C(=O)C([C@@H](C)O)NC(=O)C([C@H](O)[C@@H](O)c5ccc(O)cc5)NC(=O)C5C[C@@H](O)CC5C(=O)C([C@@H](C)O)NC4=O)cc3)cc2)cc1 (some centres unmarked) [compound 16] | retain their activity |  |  |  |  |  |  |  |  |  |  |  | 
2 | CCCCCOc1ccc(-c2ccc(-c3ccc(C(=O)N[C@H]4C[C@@H](O)C(OCC[N+](C)(C)C)NC(=O)C5[C@@H](O)[C@@H](C)CN5C(=O)C([C@@H](C)O)NC(=O)C([C@H](O)[C@@H](O)c5ccc(O)cc5)NC(=O)C5C[C@@H](O)CN5C(=O)C([C@@H](C)O)NC4=O)cc3)cc2)cc1 (some centres unmarked) [compound 1] | retain their activity | > 13.7 mg/mL | > 19.4 mg/mL | > 34.1 mg/mL | > 18.4 mg/mL | > 15 mg/mL | > 15 mg/mL | > 15 mg/mL | 0.05 mg/mL | > 15 mg/mL | dramatically greater aqueous solubility than anidulafungin | 4.6 mg/mL | > 15 mg/mL
